The results in this text go back to patent publication US20250228242A1 (priority 2021, published 2025).

The test system of this assay is P. infestans. Put plainly: whole plant or invertebrate. In kind it is in vivo. The conditions noted are these: Phytophthora infestans, in Solanum tuberosum, read-out: P. infestans % inhibition.

Counter-ions that a name gives are not always drawn.

By inhibition is commonly meant the percentage by which the read-out fell short of the control. On to `Cc1ccc(-c2noc(-c3ccc(S(C)(=O)=O)cc3)n2)cc1` [Compound 89, 3-(4-Methylphenyl)-5-[4-(methylsulfonyl)phenyl]-1,2,4-oxadiazole], for which the inhibition at 100 µM was 8%. In the case of `CCc1ccc(-c2cc(-c3ccc(N4CCC4)cc3)on2)cc1` [Compound 90, 5-[4-(Azetidin-1-yl)phenyl]-3-(4-ethylphenyl)-1,2-oxazole], the inhibition at 100 µM amounted to 13%. On to `Clc1ccccc1-c1cc(-c2ccc(N3CCCCC3)cc2)on1` [Compound 91, 1-{4-[3-(2-Chlorophenyl)-1,2-oxazol-5-yl]phenyl}piperidine], for which the inhibition at 100 µM turned out to be 29%. Regarding `O=S(=O)(Nc1ccc(-c2n[nH]c(-c3ccc(C(F)(F)F)cc3)n2)cc1)c1ccc(Cl)cc1` [Compound 92, 4-Chloro-N-(4-{5-[4-(trifluoromethyl)phenyl]-1H-1,2,4-triazol-3-yl}phenyl)benzenesulfonamide], the inhibition at 100 µM was determined as 84%.

Consider `CC(C)[C@H](N)C(=O)Nc1ccc(-c2cc(-c3cccc(F)c3)on2)cc1` [Compound 93, (2S)-2-Amino-N-{4-[5-(3-fluorophenyl)-1,2-oxazol-3-yl]phenyl}-3-methylbutanamide hydrochloride], for which the inhibition at 100 µM amounted to 95%. As to `O=C(Nc1ccccc1)Nc1ccc(-c2nc(-c3cccc(C(F)(F)F)c3)no2)cc1` [Compound 94, 1-Phenyl-3-(4-{3-[3-(trifluoromethyl)phenyl]-1,2,4-oxadiazol-5-yl}phenyl)urea], the inhibition at 100 µM was found to be 9%. The result for `CCOC(=O)c1ccc(-c2noc(-c3ccc(SC)cc3)n2)cc1` [Compound 95, Ethyl 4-{5-[4-(methylsulfanyl)phenyl]-1,2,4-oxadiazol-3-yl}benzoate] reads 9%; that for `CSc1ccc(-c2nc(-c3ccc(C(=O)O)cc3)no2)cc1` [Compound 96, 4-{5-[4-(Methylsulfanyl)phenyl]-1,2,4-oxadiazol-3-yl}benzoic acid], 4%. Consider `CC1(C)CCc2cc(-c3cc(-c4cccc(Br)c4)[nH]n3)ccc2O1` [Compound 97, 5-(3-Bromophenyl)-3-(2,2-dimethyl-3,4-dihydro-2H-chromen-6-yl)-1H-pyrazole], for which the inhibition at 100 µM was 10%. On to `CN1CCOc2cc(-c3nc(-c4cccc(N5CCOCC5)c4)no3)ccc21` [Compound 98, 4-Methyl-7-{3-[3-(morpholin-4-yl)phenyl]-1,2,4-oxadiazol-5-yl}-3,4-dihydro-2H-1,4-benzoxazine], for which the inhibition at 100 µM was 22%.

Turning to `Cc1ccc([N+](=O)[O-])cc1-c1nc(-c2ccc(F)cc2)n[nH]1` [Compound 99, 3-(4-Fluorophenyl)-5-(2-methyl-5-nitrophenyl)-1H-1,2,4-triazole], the inhibition at 100 µM was 64%. As for `Cc1ccc(N)cc1-c1nc(-c2ccc(F)cc2)n[nH]1` [Compound 100, 5-(3-Amino-6-methylphenyl)-3-(4-fluorophenyl)-1H-1,2,4-triazole], the inhibition at 100 µM is 51%. As for `CCNC(=O)Nc1ccc(C)c(-c2nc(-c3ccc(F)cc3)n[nH]2)c1` [Compound 101, 1-Ethyl-3-{3-[3-(4-fluorophenyl)-1H-1,2,4-triazol-5-yl]-4-methylphenyl}urea], the inhibition at 100 µM was 69%. Take `Cc1ccc(NC(=O)c2cccc(Cl)c2)cc1-c1nc(-c2ccc(F)cc2)n[nH]1` [Compound 102, 3-Chloro-N-{3-[3-(4-fluorophenyl)-1H-1,2,4-triazol-5-yl]-4-methylphenyl}benzamide]: the inhibition at 100 µM came to 30%. With `Cc1ccc(NC(=O)[C@@H](N)Cc2ccccc2)cc1-c1nc(-c2ccc(F)cc2)n[nH]1` [Compound 103, (2S)-2-Amino-N-{3-[3-(4-fluorophenyl)-1H-1,2,4-triazol-5-yl]-4-methylphenyl}-3-phenylpropanamide hydrochloride], the inhibition at 100 µM came out at 99%. For `COc1ccc(-c2n[nH]c(-c3cccc(N(C)C)c3)n2)cc1OC` [Compound 105, 3-[3-(3,4-Dimethoxyphenyl)-1H-1,2,4-triazol-5-yl]-N,N-dimethylaniline], the inhibition at 100 µM was determined as 77%. The result for `CCOc1cccc(-c2nc(-c3cccc(C)c3)n[nH]2)c1` [Compound 106, 5-(3-Ethoxyphenyl)-3-(3-methylphenyl)-1H-1,2,4-triazole] reads 44%; that for `Cc1cccc(-c2n[nH]c(-c3cccc(O)c3)n2)c1` [Compound 107, 5-(3-Hydroxyphenyl)-3-(3-methylphenyl)-1H-1,2,4-triazole], 91%; that for `CCOC(=O)Nc1cccc(-c2c[nH]c(-c3ccc(F)cc3)n2)c1` [Compound 108, Ethyl {3-[2-(4-fluorophenyl)-1H-imidazol-5-yl]phenyl}carbamate], 51%. On to `c1cc2c(cc1-c1cnc(-c3ccc(N4CCOCC4)cc3)[nH]1)CCO2` [Compound 109, 4-{4-[5-(2,3-Dihydro-1-benzofuran-5-yl)-1H-imidazol-2-yl]phenyl}morpholine], for which the inhibition at 100 µM is 11%.

Take `CCOc1ccc(-c2coc(-c3cccc(C(C)C)c3)n2)cc1` [Compound 110, 4-(4-Ethoxyphenyl)-2-[3-(propan-2-yl)phenyl]-1,3-oxazole]: the inhibition at 100 µM is 18%. The result for `Clc1ccc(-c2cc(-c3ccc4c(c3)OCCO4)n[nH]2)cc1` [Compound 111, 5-(4-Chlorophenyl)-3-(2,3-dihydro-1,4-benzodioxin-6-yl)-1H-pyrazole] reads 24%; that for `Brc1cccc(-c2cc(-c3ccc4nccnc4c3)n[nH]2)c1` [Compound 112, 6-[5-(3-Bromophenyl)-1H-pyrazol-3-yl]quinoxaline], 44%; that for `COc1ccc(-c2c[nH]c(-c3ccc(Cl)cc3)n2)cc1` [Compound 113, 2-(4-Chlorophenyl)-5-(4-methoxyphenyl)-1H-imidazole], 90%. The result for `CN1CCN(c2cccc(-c3nc(-c4ccc5c(c4)OCCO5)co3)c2)CC1` [Compound 114, 1-Methyl-4-{3-[4-(2,3-dihydro-1,4-benzodioxin-6-yl)-1,3-oxazol-2-yl]phenyl}piperazine] reads 93%; that for `CCOC(=O)c1ccc(-c2ncc(-c3ccc(C)cc3)o2)cc1` [Compound 115, Ethyl 4-[5-(4-methylphenyl)-1,3-oxazol-2-yl]benzoate], 12%; that for `Cc1ccc(-c2cnc(-c3ccc(C(=O)O)cc3)o2)cc1` [Compound 116, 4-[5-(4-Methylphenyl)-1,3-oxazol-2-yl]benzoic acid], 72%. As for `COc1ccc(-c2c[nH]c(-c3ccc(Br)cc3)n2)cc1` [Compound 117, 2-(4-Bromophenyl)-5-(4-methoxyphenyl)-1H-imidazole], the inhibition at 100 µM was determined as 97%. For `Oc1ccc(-c2c[nH]c(-c3ccc(Br)cc3)n2)cc1` [Compound 118, 2-(4-Bromophenyl)-5-(4-hydroxyphenyl)-1H-imidazole], the inhibition at 100 µM worked out at 83%. In the case of `CS(=O)(=O)Nc1cccc(-c2ncc(-c3ccc(Cl)c(Cl)c3)o2)c1` [Compound 119, N-{3-[5-(3,4-Dichlorophenyl)-1,3-oxazol-2-yl]phenyl} methanesulfonamide], the inhibition at 100 µM was 15%. As for `COC(=O)Nc1cccc(-c2ncc(-c3ccc(Cl)c(Cl)c3)o2)c1` [Compound 120, Methyl {3-[5-(3,4-dichlorophenyl)-1,3-oxazol-2-yl]phenyl}carbamate], the inhibition at 100 µM was found to be 12%. Regarding `CCOC(=O)c1cccc(-c2ncc(-c3ccc(C(F)(F)F)cc3OC)o2)c1` [Compound 121, Ethyl 3-{5-[2-methoxy-4-(trifluoromethyl)phenyl]-1,3-oxazol-2-yl}benzoate], the inhibition at 100 µM stood at 28%.

Regarding `COc1cc(C(F)(F)F)ccc1-c1cnc(-c2cccc(C(=O)O)c2)o1` [Compound 122, 3-{5-[2-Methoxy-4-(trifluoromethyl)phenyl]-1,3-oxazol-2-yl}benzoic acid], the inhibition at 100 µM is 36%. Take `CCN(CC)C(=O)c1cccc(-c2ncc(-c3ccc(C(F)(F)F)cc3OC)o2)c1` [Compound 123, N,N-diethyl-3-{5-[2-methoxy-4-(trifluoromethyl)phenyl]-1,3-oxazol-2-yl}benzamide]: the inhibition at 100 µM is 33%. Turning to `COc1ccc(S(=O)(=O)Nc2ccc(-c3coc(-c4ccc(OC(C)C)cc4)n3)cc2)cc1` [Compound 124], the inhibition at 100 µM turned out to be 4%. Consider `CCc1ccc(-c2c[nH]c(-c3cccc(C(=O)O)c3)n2)cc1` [Compound 125, 3-[4-(4-Ethylphenyl)-1H-imidazol-2-yl]benzoic acid], for which the inhibition at 100 µM stood at 30%.

Turning to `CCc1ccc(-c2cc(-c3cccc(NC(=O)OCCOC)c3)[nH]n2)cc1` [Compound 126, 2-Methoxyethyl {3-[5-(4-ethylphenyl)-1H-pyrazol-3-yl]phenyl}carbamate], the inhibition at 100 µM was 81%. On to `O=C(Nc1ccc(F)cc1)Nc1ccc(-c2cc(-c3cccc(OC(F)(F)F)c3)n[nH]2)cc1` [Compound 127, 1-(4-Fluorophenyl)-3-(4-{5-[3-(trifluoromethoxy)phenyl]-1H-pyrazol-3-yl}phenyl)urea], for which the inhibition at 100 µM was found to be 18%.

As for `O=C(Nc1ccc(-c2cc(-c3cccc(OC(F)(F)F)c3)n[nH]2)cc1)C(F)(F)F` [Compound 128, 2,2,2-Trifluoro-N-(4-{5-[3-(trifluoromethoxy)phenyl]-1H-pyrazol-3-yl}phenyl)acetamide], the inhibition at 100 µM was 6%. Regarding `COc1cc(Cl)cc(-c2nc(-c3ccc(OC(F)(F)F)cc3)co2)c1` [Compound 130, 2-(3-Chloro-5-methoxyphenyl)-4-[4-(trifluoromethoxy)phenyl]-1,3-oxazole], the inhibition at 100 µM amounted to 9%.

Regarding `Cc1cc(F)ccc1-c1cnc(-c2cccc(NC(=O)[C@@H](N)CCC(N)=O)c2)o1` [Compound 131, (2S)-2-Amino-N1-{3-[5-(4-fluoro-2-methylphenyl)-1,3-oxazol-2-yl]phenyl}pentanediamide hydrochloride], the inhibition at 100 µM came out at 47%. Regarding `Oc1cc(Cl)cc(-c2nc(-c3ccc(OC(F)(F)F)cc3)co2)c1` [Compound 132, 2-(3-Chloro-5-hydroxyphenyl)-4-[4-(trifluoromethoxy)phenyl]-1,3-oxazole], the inhibition at 100 µM was found to be 66%.
